The subject of data set [1] is E.coli ATCC 35218. Briefly: microbe, parasite or virus in culture. The format is cell-based. The following applies: Table 2.b)3; test concentrations given in μg/ml. The method, then:
(§1) 1. Culture Medium: Tryprone Soy Broth (TBS) - Biogenetics
(§2) Microbic standard strains from American Type Culture Collection (ATCC) were used, chosen among aerobic Gram positive and negative as follows:
(§3) The broths culture of the different species are prepared growing the standard strain (kept in Tryptic Soy Agar (TSA) slent at 5° C.) in Tryptone Soy Broth (TSB) for 12 hours at 37° C. 10 ml are then taken up from each culture, centrifugated for 3 times at 3500 PM washing each time the sediment using 10 ml of sterile saline solution. The sediment is resuspended in the saline solution until obtainment of a turbidity corresponding to the Mc Farland standard solution (the suspension title must be […] UFC/ml).
(§4) The compounds, dissolved as stock solution, were added to test tubes containing 5 ml TBS in order to obtain the desired Final concentration 10000; 5000; 1000; 200; 40; 2; 0.4; 0.05 μg/ml (culture medium maximal dilution=1/10).
(§5) 50 μl of bacterial suspension are added to the tube containing the compounds to be tested and incubated at 37° C.: the densitometric determination is made in comparison with Mc Farland standard solution 24 and 48 hours later.
(§6) After the incubation time the suspensions ape gently agitated; 50 μl of each suspension are inoculated in tubes containing […] of TSB and incubated at 37° C.; the densitometric determination is made 48 hours later.
(§7) BMC is defined by comparison between the two densitometric evaluation.

Data set [2] concerns Balb/C 3T3 fibroblasts. Briefly: Cell growth of Balb/C 3T3 fibroblasts, crystal violet colorimetry (1.1b). Conditions: for cell growth t2/t1: 48 h/24 h, control 76.776. The format is cell-based, Mouse. The protocol: Mouse Balb/C 3T3 fibroblasts were grown in DMEM medium supplemented with penicillin (100 units/ml) and streptomycin (0.1 mg/ml). For experimental purposes, cells are routinely inoculated in […] diameter culture dishes (5000cells/dish) and cultured overnight.
The compounds to be tested are solubilized in DMEM+10%FCS and DMSO to obtain the final concentration of 10^-5 M, 10^-6 M e 10^-7 M in 0.05% DMSO.
The cells number is measured 4, 24 and 48 hours after seeding. The cell growth is evaluated as t2/t1 ratio (%).

In data set [3] the test system is C.albicans ATCC 10231. Briefly: Evaluation of bacteriostatic minimal concentration (BMC). The following applies: Table 2.b)6; test concentrations given in μg/ml. The format is cell-based. The protocol: as §1, §2, §3, §4, §5, §6, §7
For data set [4], the system named is St.aureus ATCC 65380. The data set is described as above. The format is cell-based. Conditions: Table 2.b)2; test concentrations given in μg/ml. The method, then: as §1, §2, §3, §4, §5, §6, §7
For data set [5], the system named is Ps.aeruginosa ATCC 35422. The data set is described as above. The following applies: Table 2.b)1; test concentrations given in μg/ml. The format is cell-based. The method, then:
as §1, §2, §3, §4, §5, §6, §7

Data set [6] relates to B.subtilis ATCC 6633. The description is as above. The format is cell-based. Conditions: Table 2.b)5; test concentrations given in μg/ml. The protocol: as §1, §2, §3, §4, §5, §6, §7
Data set [7] has as its system St.epidermidis ATCC 14990. The description is as above. The format is cell-based. The following applies: Table 2.b)4; test concentrations given in μg/ml. The protocol:
as §1, §2, §3, §4, §5, §6, §7

In data set [8] the test system is fibroblast cells L929. Briefly: Cell growth of fibroblast L929 culture, crystal violet colorimetry (1.2). Conditions: in words; for promotion of cell growth (proliferation): benzethonium > gentamycin salt.
Method: Mice fibroblast cells L929, clone derived from connective tissue, are suspended in Eagle's MEM with penicillin (100U/ml)--streptomycin (0.1 mg/ml), seeded in culture dishes (10000cells/dish) and cultured overnight. After 24 hours the culture medium was decantated and the tested compounds are added. The cellular density is measured after 4 (t0) and 24 (t1) hours of incubation at 37° C. in 5% CO2 air by colorimetry using crystal violet (exposure for 15 minutes, room temperature; absorbance 570 nm).
The cells number is measured at 4 (t0) and 24 (t1) hours from the seeding. The cell growth is evaluated at t1/t0 rate (%).

For the molecule `CCC[C@@H]1C[C@@H](C(=O)N[C@@H]([C@H]2O[C@H](SC)[C@H](O)[C@@H](O)[C@H]2O)[C@@H](C)O)N(C)C1.O=C(O)/C=C/CCCCCCCCC(=O)O` (relative stereo) [Lincomycin Traumatate, lincomycin trans-traumatate], the “MINIMAL BACTERIAL CONCENTRATION” value is given as 10,000.00 in data set [1]; 10,000.00 in [3]; 10,000.00 in data set [4]; 10,000.00 in data set [5]; 1,000.00 in data set [6]; 200.00 in data set [7]. For the same molecule, in data set [2] (10^-5 to 10^-7 M, in words, lincomycin > rolitetracycline > erythromycin salt), the “promotion of cell growth” value is listed as “capable to promote cell growth at all the tested doses”. The Cell density in [2] (4 h (t0), 10^-5M, control 0.300) is given as 0.361; in data set [2] (4 h (t0), 10^-6M, control 0.300), 0.352; in [2] (4 h (t0), 10^-7M, control 0.300), 0.384; in [2] (24 h (t1), 10^-5M, control 0.481) it was 0.228; in [2] (24 h (t1), 10^-6M, control 0.481) it was 0.210; in data set [2] (24 h (t1), 10^-7M, control 0.481) it was 0.209. The Cell density in data set [2] (48 h (t2), 10^-5M, control 0.849) stood at 0.693; in [2] (48 h (t2), 10^-6M, control 0.849) it was 0.734; in [2] (48 h (t2), 10^-7M, control 0.849) it was 0.705. For the same molecule, the “cell growth t2/t1” value in data set [2] (10^-5M) was 195.78%; in data set [2] (10^-6M) it was 246.29%; in data set [2] (10^-7M), 247.68%. The “cell growth effect compared to traumatic acid” value in [2] (in words) is on record as “more consistent if compared to the corresponding one of the parent compound traumatic acid”. In addition, the organic solvent solubility (dmso) is > 10000 µg/mL. Moreover, where the note is “water”, the solubility in water is > 10000 µg/mL.
Consider `CC(C)(C)CC(C)(C)c1ccc(OCCOCC[N+](C)(C)Cc2ccccc2)cc1.CC(C)(C)CC(C)(C)c1ccc(OCCOCC[N+](C)(C)Cc2ccccc2)cc1.O=C([O-])/C=C/CCCCCCCCC(=O)[O-]` [Benzethonium Traumatate, benzethonium trans-traumatate], for which the “MINIMAL BACTERIAL CONCENTRATION” value was 40.00 in data set [1]; 2.00 in data set [3]; 2.00 in data set [4]; 200.00 in data set [5]; 8.00 in data set [6]; 2.00 in data set [7]. Moreover, the “cell growth effect compared to traumatic acid” value in data set [8] is recorded as “higher than traumatic acid effect”. For the same molecule, the “promotion of cell growth (proliferation)” value in data set [8] is listed as “capable to promote cell growth (proliferation) according to dose-effect relationship”.
Consider “gentamycin trans-traumatate [Gentamycin Traumatate]”, for which the “MINIMAL BACTERIAL CONCENTRATION” value is 200.00 in data set [1]; > 10,000 in data set [3]; 1,000.00 in [4]; 1,000.00 in data set [5]; 40.00 in data set [6]; 200.00 in data set [7]. Also, in data set [8], the “cell growth effect compared to traumatic acid” value was “higher than traumatic acid effect”. Also, the “promotion of cell growth (proliferation)” value in [8] is “capable to promote cell growth (proliferation) according to dose-effect relationship”.
